Counter-ions that a name gives are not always drawn.
System: not given
Assay: not given
Settings: not given

Compared with Fc1ccc(C2CCNCC2)c(F)c1 (as salt: hydrochloric acid salt) [Example 1, 4-(2,4-DIFLUOROPHENYL)PIPERIDINE], Fc1ccc(C2CCNCC2)cc1F (as salt: hydrochloric acid salt) [Example 4, 4-(3,4-DIFLUOROPHENYL)PIPERIDINE] is lower in melting point: 256 to 258 °C for the first, 255 to 256 °C for the second.

Going from CN1CCC(c2ccc(F)cc2F)CC1 (as salt: hydrochloric acid salt) [Example 11, 4-(2,4-DIFLUOROPHENYL)-1-METHYLPIPERIDINE] to Fc1cc(F)cc(C2CCNCC2)c1 (as salt: fumaric acid salt) [Example 3, 4-(3,5-DIFLUOROPHENYL)PIPERIDINE], the melting point falls from 198 °C to 178 °C.

Going from Fc1cc(Cl)cc(C2CCNCC2)c1 (as salt: hydrochloric acid salt) [Example 10, 4-(3-CHLORO-5-FLUOROPHENYL)PIPERIDINE] to Fc1ccc(C2CCNCC2)cc1Cl (as salt: oxalic acid salt) [Example 9, 4-(3-CHLORO-4-FLUOROPHENYL)PIPERIDINE], the melting point falls from 243 °C to 147 °C.

Compared with Fc1ccc(C2CCNCC2)cc1C(F)(F)F (as salt: hydrochloric acid salt), Clc1ccc(C2CCNCC2)cc1Cl (as salt: hydrochloric acid salt) [Example 6, 4-(3,4-DICHLOROPHENYL)PIPERIDINE] is lower in melting point: 195 to 196 °C for the first, 170 °C for the second.

System: DOPAC levels (3,4-dihydroxyphenylacetic acid) in the rat striatum
Assay: In vivo test: neurochemistry, tissue content of DOPAC in the striatum
Settings: sc, 1 h, 100 μmol/kg s.c., 60 minutes after administration, %-increase from control value
Method: In short, male Sprague-Dawely rats are administered the test compound 60 minutes prior to decapitation. The brain is rapidly taken out and dissected. The striatum is rapidly frozen and subsequently quantitatively analysed with respect to its content of DOPAC by means of HPLC and electrochemical detection. The number of animals used for each test compound/vehicle is 4/group.
Male Sprague-Dawley rats weighing 220-320 g are used throughout the experiments. Sixty (60) minutes following administration of the test substance, the rats are decapitated. Directly after decapitation the brain is removed from the skull and put on a glass petri bowl filled with ice. The limbic system (containing the nucleus accumbens—both the core and shell, most parts of the olfactory tubercle and ventral pallidum) is dissected using two thin, angled tweezers and put directly on foil on dry ice (carbon dioxide −78° C.). The striatum and cortex are then dissected and also put on dry ice. The time from decapitation until the last tissue is dissected varies from four to six minutes. The tissue is weighed using a Sartorius BP3105 connected to a computer and packed in labelled tin foil, then stored in an −80° C. freezer. Great care is taken in order to keep the tissue frozen until the time of neurochemical analysis. Each brain part is subsequently analyzed with respect to its content of monoamines and their metabolites.
The monoamine transmitter substances (NE (norepinephrine), DA (dopamine), 5-HT (serotonin)) as well as their amine (NM (normethanephrine), 3-MT (3-methoxytyramine)) and acid (DOPAC (3,4-dihydroxyphenylacetic acid), 5-HIAA (5-hydroxyindoleacetic acid), HVA (homovanillic acid)) metabolites are quantified in brain tissue homogenates by HPLC separations and electrochemical detection.
The analytical method is based on two chromatographic separations dedicated for amines or acids. Two chromatographic systems share a common auto injector with a 10-port valve and two sample loops for simultaneous injection on the two systems. Both systems are equipped with a reverse phase column (Luna C18(2), dp 3 μm, 50*2 mm i.d., Phenomenex) and electrochemical detection is accomplished at two potentials on glassy carbon electrodes (MF-1000. Bioanalytical Systems, Inc.). The column effluent is passed via a T-connection to the detection cell or to a waste outlet. This is accomplished by two solenoid valves, which block either the waste or detector outlet. By preventing the chromatographic front from reaching the detector, better detection conditions are achieved. […] Detection potentials relative to Ag/AgCl reference are 0.45 and 0.60V. […] Detection potentials relative to Ag/AgCl reference are 0.45 and 0.65V.

First: Fc1ccc(C2CCNCC2)cc1C(F)F
Second: Fc1ccc(C2CCNCC2)cc1Cl [drawing 17]
The change in vivo at 100 µmol/kg of the first is higher: 17% for the first, -29% for the second.

First: Fc1cc(F)cc(C2CCNCC2)c1 [drawing 15]
Second: Fc1cc(Cl)cc(C2CCNCC2)c1 [drawing 18]
The change in vivo at 100 µmol/kg of the first is higher: -19% for the first, -26% for the second.

Compared with Fc1ccc(C2CCNCC2)c(F)c1 [drawing 13], CN1CCC(c2ccc(F)cc2F)CC1 [drawing 19] is lower in change in vivo at 100 µmol/kg: -36% for the first, -41% for the second.

Compared with CCCN1CCC(c2cc(F)cc(C(F)(F)F)c2)CC1 [reference compound], CCN1CCC(c2cc(F)cc(C(F)(F)F)c2)CC1 [reference compound] is lower in change in vivo at 100 µmol/kg: 239% for the first, 232% for the second.

Compared with CCN1CCC(c2ccc(F)c(C(F)(F)F)c2)CC1 [reference compound], CCCN1CCC(c2ccc(F)c(C(F)(F)F)c2)CC1 [reference compound] is higher in change in vivo at 100 µmol/kg: 75% for the first, 94% for the second.

Going from CCCN1CCC(c2ccc(Cl)c(C(F)(F)F)c2)CC1 [reference compound] to CCCN1CCC(c2cccc(S(C)(=O)=O)c2)CC1 [reference compound], the change in vivo at 100 µmol/kg rises from 94% to 114%.

Clc1ccc(C2CCNCC2)cc1Cl [drawing 16] showed a change in vivo at 100 µmol/kg of -14%.

System: extracellular levels of dopamine and norepinephrine
Assay: In vivo test: microdialysis, extracellular monoamines in striatum and prefrontal cortex
Design: species or system rat
Settings: 50 μmol/kg s.c.; pf. cortex; awake and freely moving rats; FIGS. 11-24
Text: The microdialysis technique (Ungerstedt, Herrera-Marschitz et al. 1982) is a well established technique for measuring extracellular levels of neurotransmitters (Ungerstedt 1991). The microdialysis technique was used to measure the effect of drugs upon the monoamine transmitters. The appended graphs (FIGS. 9 and 10) show the effects of one established antidepressant (mirtazapine) upon monoamines in the striatum and frontal cortex, as well as for seven compounds claimed in the present invention (FIGS. 11-24; Examples 1, 3, 4, 6, 9, 10 and 11). The number of animals (n) used for each compound tested is noted in the figure legend.
Male Sprague-Dawley rats weighing 220-320 g were used throughout the experiments. Before the experiment the animals were group housed, five animals in each cage, with free access to water and food. The animals were housed at least one week after arrival prior to surgery and use in the experiments. Each rat was used only once for microdialysis. We use a modified version (Waters, Lofberg et al. 1994) of the I-shaped probe (Santiago and Westerink 1990). The dialysis membrane we use is the AN69 polyacrylonitrile/sodium methalylsulfonate copolymer (HOSPAL; o.d./i.d. 310/220 μm: Gambro, Lund, Sweden). In the dorsal striatum we use probes with an exposed length of 3 mm of dialysis membrane and in the prefrontal cortex the corresponding length is 2.5 mm. The rats were operated under isoflurane inhalation anesthesia while mounted into a Kopf stereotaxic instrument. Coordinates were calculated relative to bregma; dorsal striatum AP+1, ML±2.6, DV−6.3; Pf cortex, AP+3.2, 8° ML±1.2, DV−4.0 according to (Paxinos and Watson 1986). The dialysis probe was positioned in a burr hole under stereotaxic guidance and cemented with phosphatine dental cement.
The rats were housed individually in cages for 48 h before the dialysis experiments, allowing them to recover from surgery and minimizing the risk of drug interactions with the anaesthetic during the following experiments. During this period the rats had free access to food and water. On the day of experiment the rats were connected to a micro perfusion pump via a swivel and were replaced in the cage where they could move freely within its confinements. The perfusion medium was a Ringer's solution containing in mmol/l: NaCl; 140, CaCl2; 1.2, KCl; 3.0, MgCl2; 1.0 and ascorbic acid; 0.04 according to (Moghaddam and Bunney 1989). The pump was set to a perfusion speed of 2 μl/min and 40 μl samples were collected every 20 min.
30 μl of each sample was injected into the chromatograph. On a 10-port injector (Valco C10W), with two sample loops mounted in series (2 μl and 20 μl), each brain dialysate sample is loaded in both loops simultaneously. When the valve is switched to inject the main part of the 20 μl sample is introduced into a reverse-phase ion-pairing system for dopamine (DA), norepinephrine (NE), normetanephrine (NM), 3-methoxytyramine (3-MT) and serotonin (5-hydroxytryptamine, 5-HT) determination (large loop), while a small fraction (2 μl, from the small loop) is introduced on a reverse-phase column for the chromatography of the acidic monoamine metabolites 3,4-di-hydroxyphenylacetic acid (DOPAC), homovanillic acid (HVA) and 5-hydroxyindoleacetic acid (5-HIAA). The currents generated by the two EC detectors are converted to digital data and evaluated using Chromelion software (Dionex, Sunnyvale, Calif.) on a PC. The method sample turn over time was 4.5 min and two parallel experiments are normally analysed simultaneously on the system. After the experiment the rats were uncoupled from the perfusion pump and decapitated. Their brains were rapidly taken out and fixed in Neo-fix solution (Kebo-lab, Sweden) for subsequent inspection of probe localisation. The Animal Ethics Committee in Göteborg, Sweden approved the procedures applied in these experiments. • Moghaddam, B. and B. S. Bunney (1989). […]

For Fc1cc(Cl)cc(C2CCNCC2)c1 [Example 10, 4-(3-CHLORO-5-FLUOROPHENYL)PIPERIDINE], the “levels of dopamine and norepinephrine in the cortex (microdialysis)” value (“levels of dopamine and norepinephrine” for short) was “elevate the levels of dopamine and norepinephrine in the cortex”.
For Fc1ccc(C2CCNCC2)cc1F [Example 4, 4-(3,4-DIFLUOROPHENYL)PIPERIDINE], the “levels of dopamine and norepinephrine” value was “elevate the levels of dopamine and norepinephrine in the cortex”.
For Fc1ccc(C2CCNCC2)c(F)c1 [Example 1, 4-(2,4-DIFLUOROPHENYL)PIPERIDINE], the “levels of dopamine and norepinephrine” value was “elevate the levels of dopamine and norepinephrine in the cortex”.
For CN1CCC(c2ccc(F)cc2F)CC1 [Example 11, 4-(2,4-DIFLUOROPHENYL)-1-METHYLPIPERIDINE], the “levels of dopamine and norepinephrine” value was “elevate the levels of dopamine and norepinephrine in the cortex”.
In the case of Fc1cc(F)cc(C2CCNCC2)c1 [Example 3, 4-(3,5-DIFLUOROPHENYL)PIPERIDINE], the “levels of dopamine and norepinephrine” value is reported as “elevate the levels of dopamine and norepinephrine in the cortex”.
With Clc1ccc(C2CCNCC2)cc1Cl [Example 6, 4-(3,4-DICHLOROPHENYL)PIPERIDINE] the “levels of dopamine and norepinephrine” value was “elevate the levels of dopamine and norepinephrine in the cortex”.
For Fc1ccc(C2CCNCC2)cc1Cl [Example 9, 4-(3-CHLORO-4-FLUOROPHENYL)PIPERIDINE], the “levels of dopamine and norepinephrine” value was “elevate the levels of dopamine and norepinephrine in the cortex”.

Same assay, conditions: 10 mg/kg s.c.; p.f. cortex; awake and freely moving rats; FIG. 10

In the case of CN1CCN2c3ncccc3Cc3ccccc3C2C1 (centres unmarked) [mirtazapine, reference compound], the “extracellular norepinephrine and dopamine in the cortex (microdialysis)” value is reported as “increase predominantly extracellular norepinephrine and dopamine in the cortex”.
